Data published in patent publication US7888386B2, “3-(phenoxyphenylmethyl)pyrrolidine compounds” (Theravance, Inc., priority 2008, dated 2011).
Like-named read-outs stand apart in the source and are kept apart here.

Legend:
hSERT = target: T1, hSERT (Homo sapiens, UniProt P31645); assay: hSERT binding assay (Assay 1)
T1 construct: expressed in transfected cells; host or cells: HEK-293 derived cell line, stably transfected; membrane preparation
Procedure: (§1) Membrane radioligand binding assays were used to measure competitive inhibition of labeled ligand (^3H-citalopram or ^3H-nisoxetine or ^3H-WIN35428) binding to membranes prepared from cells expressing the respective human recombinant transporter (hSERT or hNET or hDAT) in order to determine the pKi values of test compounds at the transporters.
(§2) Recombinant human embryonic kidney (HEK-293) derived cell lines stably transfected with hSERT or hNET, respectively, were grown in DMEM medium supplemented with 10% dialyzed FBS (for hSERT) or FBS (for hNET), 100 μg/ml penicillin, 100 μg/ml streptomycin, 2 mM L-glutamine and 250 μg/ml of the aminoglycoside antibiotic G418, in a 5% CO2 humidified incubator at 37° C. When cultures reached 80% confluence, the cells were washed thoroughly in PBS (without Ca^2+ and Mg^2+) and lifted with 5 mM EDTA in PBS. Cells were pelleted by centrifugation, resuspended in lysis buffer (10 mM Tris-HCl, pH 7.5 containing 1 mM EDTA), homogenized, pelleted by centrifugation, then resuspended in 50 mM Tris-HCl, pH 7.5 and 10% sucrose at 4° C. Protein concentration of the membrane suspension was determined using a Bio-Rad Bradford Protein Assay kit. Membranes were snap frozen and stored at −80° C. Chinese hamster ovary membranes expressing hDAT (CHO-DAT) were purchased from PerkinElmer and stored at −80° C.
(§3) Stock solutions (10 mM in DMSO) of test compound were prepared and serial dilutions made using Dilution Buffer (50 mM Tris-HCl, 120 mM NaCl, 5 mM KCl, pH 7.4, 0.1% BSA, 400 μM ascorbic acid).
(§4) Following a 60 minute incubation at 22° C. (or a period sufficient to reach equilibrium), the membranes were harvested by rapid filtration over a 96-well UniFilter GF/B plate, pretreated with 0.3% polyethyleneimine, and washed 6 times with 300 μl wash buffer (50 mM Tris-HCl, 0.9% NaCl, pH 7.5 at 4° C.). Plates were dried overnight at room temperature, ˜45 μl of MicroScint™-20 (Perkin Elmer) added and bound radioactivity quantitated via liquid scintillation spectroscopy. Competitive inhibition curves and saturation isotherms were analyzed using GraphPad Prism Software package (GraphPad Software, Inc., San Diego, Calif.). IC50 values were generated from concentration response curves using the Sigmoidal Dose Response (variable slope) algorithm in Prism GraphPad.

hNET = target: T2, hNET (Homo sapiens, UniProt P23975); assay: hNET binding assay (Assay 1)
T2 construct: expressed in transfected cells; host or cells: HEK-293 derived cell line, stably transfected; membrane preparation
Procedure: as §1, §2, §3, §4

[1] = ratio of SERT Ki to NET Ki from binding assays
[2] = hNET binding assay, read-out: NET pKi (converted)
[3] = ratio of SERT Ki to NET Ki (binding)
[4] = hNET binding, read-out: NET pKi (converted)
[5] = ratio of binding Ki at hSERT to Ki at hNET, rounded off to the nearest tenth
[6] = membranes of HEK-293 cells expressing hNET, 1.0 nM 3H-nisoxetine, read-out: NET pKi (converted)
[7] = ratio of binding Ki at SERT to Ki at NET, the tables list only compounds with a ratio in the range 0.1-100

T1 sequence (P31645 whole entry): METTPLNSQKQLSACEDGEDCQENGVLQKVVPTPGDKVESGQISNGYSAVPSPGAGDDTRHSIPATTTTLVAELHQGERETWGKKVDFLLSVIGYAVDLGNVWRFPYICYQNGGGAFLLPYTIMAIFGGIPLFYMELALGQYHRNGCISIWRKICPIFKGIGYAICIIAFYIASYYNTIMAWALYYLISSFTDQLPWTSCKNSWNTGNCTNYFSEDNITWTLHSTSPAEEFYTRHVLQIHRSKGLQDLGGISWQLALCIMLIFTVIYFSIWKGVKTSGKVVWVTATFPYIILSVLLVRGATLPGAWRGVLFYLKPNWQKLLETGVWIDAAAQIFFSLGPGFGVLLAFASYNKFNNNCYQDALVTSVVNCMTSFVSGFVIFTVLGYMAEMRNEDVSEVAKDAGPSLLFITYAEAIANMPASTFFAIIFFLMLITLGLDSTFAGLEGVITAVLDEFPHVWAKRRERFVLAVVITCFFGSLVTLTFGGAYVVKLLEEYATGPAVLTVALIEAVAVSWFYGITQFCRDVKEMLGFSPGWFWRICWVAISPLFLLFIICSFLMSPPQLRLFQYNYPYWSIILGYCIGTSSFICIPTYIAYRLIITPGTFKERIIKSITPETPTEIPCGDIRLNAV
T2 sequence (P23975 whole entry): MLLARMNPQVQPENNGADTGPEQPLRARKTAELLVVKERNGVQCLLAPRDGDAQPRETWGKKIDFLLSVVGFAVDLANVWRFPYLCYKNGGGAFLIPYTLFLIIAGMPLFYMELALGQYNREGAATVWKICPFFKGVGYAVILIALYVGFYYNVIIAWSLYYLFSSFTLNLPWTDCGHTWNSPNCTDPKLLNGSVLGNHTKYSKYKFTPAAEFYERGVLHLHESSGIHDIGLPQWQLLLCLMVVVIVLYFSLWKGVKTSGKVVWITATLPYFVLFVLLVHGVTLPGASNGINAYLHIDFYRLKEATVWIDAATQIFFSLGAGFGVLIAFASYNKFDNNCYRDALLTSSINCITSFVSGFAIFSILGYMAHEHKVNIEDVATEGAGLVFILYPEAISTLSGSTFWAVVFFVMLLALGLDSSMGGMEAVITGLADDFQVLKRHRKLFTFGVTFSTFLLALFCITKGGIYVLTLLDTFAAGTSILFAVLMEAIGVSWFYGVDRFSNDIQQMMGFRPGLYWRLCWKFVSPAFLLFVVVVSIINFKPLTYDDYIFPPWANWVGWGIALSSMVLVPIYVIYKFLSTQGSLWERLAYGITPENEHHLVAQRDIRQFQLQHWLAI

Row | SMILES | SERT Ki/NET Ki (hSERT; [3]) | Ki (hNET; [4]) [nM] | SERT Ki/NET Ki (hSERT; [5]) | Ki (hNET; [6]) [nM] | further results
1 | Cc1ccc(F)c(O[C@@H](c2ccccc2)[C@H]2CCNC2)c1 [29-9] | – | – | – | – | SERT Ki/NET Ki (hSERT; [1]): 10; Ki (hNET; [2]): 1.26 nM
2 | Cc1ccc(C(Oc2cc(Cl)cc(Cl)c2)C2CCNC2)cc1 (stereo not drawn) [35-12] | 0.1 | 7.94 | – | – | –
3 | CCc1cc(F)ccc1OC(c1cc(F)cc(F)c1)C1CCNC1 (stereo not drawn) [28-14] | – | – | – | – | SERT Ki/NET Ki (hSERT; [1]): 3.2; Ki (hNET; [2]): 1.58 nM
4 | Cc1c(Cl)cccc1OC(c1ccccc1)C1CCNC1 (stereo not drawn) [Compound 25-21] | – | – | 0.6 | 1.26 | –
5 | Fc1ccc(Cl)c(Cl)c1OC(c1ccccc1)C1CCNC1 (stereo not drawn) [40-12] | 1.3 | 0.251 | – | – | –
6 | Clc1ccc(Cl)c(OC(c2ccccc2)C2CCNC2)c1 (stereo not drawn) [29-11] | – | – | – | – | SERT Ki/NET Ki (hSERT; [1]): 0.2; Ki (hNET; [2]): 3.98 nM
7 | Cc1cccc(F)c1OC(c1ccccc1)C1CCNC1 (stereo not drawn) [31-6] | – | – | – | – | SERT Ki/NET Ki (hSERT; [1]): 2; Ki (hNET; [2]): 1.58 nM
8 | CC(=O)c1ccccc1O[C@H](c1ccccc1)[C@@H]1CCNC1 (stereo in doubt) [Ex. 9-3, 1-[2-((R)-phenyl-(S)-pyrrolidin-3-yl-methoxy)phenyl]ethanone] | – | – | 50 | 3.16 | –
9 | Cc1cccc(Cl)c1O[C@@H](c1ccccc1)[C@H]1CCNC1 [31-12] | – | – | – | – | SERT Ki/NET Ki (hSERT; [1]): 1.6; Ki (hNET; [2]): 1 nM
10 | COc1ccccc1O[C@@H](c1cc(F)cc(F)c1)[C@@H]1CCNC1 (racemic) [Compound 20-31] | – | – | 6.3 | 5.01 | –
11 | Cc1c(F)cccc1O[C@@H](c1ccccc1)[C@H]1CCNC1 [Compound 25-19] | – | – | 4 | 0.794 | –
12 | N#Cc1cccc([C@H](Oc2c(F)ccc(F)c2Cl)[C@H]2CCNC2)c1 [41-32] | 40 | 0.398 | – | – | –
13 | Cc1ccc(Cl)c(OC(c2cc(F)cc(Cl)c2)C2CCNC2)c1Cl (stereo not drawn) [41-24] | 1 | 1 | – | – | –
14 | Cc1c(Cl)cccc1O[C@H](c1ccccc1)[C@@H]1CCNC1 [Compound 25-22] | – | – | 0.2 | 0.631 | –
15 | Fc1c(Oc2ccccc2)cccc1OC(c1ccccc1)C1CCNC1 (stereo not drawn) [Compound 25-8] | – | – | 1.3 | 2.51 | –
16 | Fc1cccc(Cl)c1O[C@@H](c1ccccc1)[C@H]1CCNC1 [31-4] | – | – | – | – | SERT Ki/NET Ki (hSERT; [1]): 40; Ki (hNET; [2]): 0.126 nM
17 | Fc1cc(F)c(F)c(OC(c2ccccc2)C2CCNC2)c1 (stereo not drawn) [38-2] | 10 | 1.58 | – | – | –
18 | c1ccc(-c2ccccc2OC(c2ccccc2)C2CCNC2)cc1 (stereo not drawn) [Compound 19-19] | – | – | 32 | 2 | –
19 | Fc1ccc(Br)cc1OC(c1ccccc1)C1CCNC1 (stereo not drawn) [29-7] | – | – | – | – | SERT Ki/NET Ki (hSERT; [1]): 1.6; Ki (hNET; [2]): 0.794 nM
20 | Cc1ccc(OC(c2ccccc2)C2CCNC2)cc1 (stereo not drawn) [Compound 23-6] | – | – | 0.2 | 6.31 | –
21 | Fc1cc(F)cc(C(Oc2cc(Cl)cc(Cl)c2Cl)C2CCNC2)c1 (stereo not drawn) [39-5] | 0.2 | 3.16 | – | – | –
22 | c1ccc(COc2ccc(OC(c3ccccc3)C3CCNC3)cc2)cc1 (stereo not drawn) [Compound 23-15] | – | – | 2 | 7.94 | –
23 | Fc1ccc(Cl)c(F)c1OC(c1ccccc1)C1CCNC1 (stereo not drawn) [40-15] | 1.3 | 0.251 | – | – | –
24 | Cc1ccc(Cl)c(OC(c2ccccc2Cl)C2CCNC2)c1Cl (stereo not drawn) [41-18] | 0.4 | 1.58 | – | – | –
25 | Cc1ccc(Cl)c(O[C@@H](c2cc(F)cc(F)c2)[C@@H]2CCNC2)c1Cl (racemic) [41-25] | 0.2 | 6.31 | – | – | –
26 | COc1ccc(F)c(Cl)c1OC(c1ccccc1)C1CCNC1 (stereo not drawn) [40-23] | 0.1 | 3.16 | – | – | –
27 | Cc1c(F)ccc(OC(c2ccccc2)C2CCNC2)c1F (stereo not drawn) [36-7] | 0.3 | 5.01 | – | – | –
28 | Clc1cc(Cl)c(Cl)c(OC(c2ccccc2)C2CCNC2)c1Cl (stereo not drawn) [Ex. 10-2, 3-[phenyl-(2,3,5,6-tetrachlorophenoxy)methyl]pyrrolidine] | – | – | – | – | SERT Ki/NET Ki (hSERT; [7]): 0.1; Ki (hNET; NET pKi, hNET binding, the tables list only compounds with NET pKi≧8): 1.26 nM
29 | Cc1ccc(F)c(O[C@H](c2ccccc2)[C@@H]2CCNC2)c1F [40-24] | 0.4 | 1.58 | – | – | –
30 | Fc1cc(F)c(Cl)c(OC(c2ccccc2Cl)C2CCNC2)c1Cl (stereo not drawn) [48-4] | – | – | – | – | SERT Ki/NET Ki (hSERT; [7]): 0.2; Ki (hNET; hNET binding, the tables list only compounds with NET pKi≧8, read-out: NET pKi (converted)): 7.94 nM
